Experimental data published in the NIST ThermoML archive (doi:10.1016/j.fluid.2007.12.007).

Experiment: xn = mol fraction of the nth substance listed
Details: 101 kPa, Liquid

NC=O [formamide] + CCC(C)O
Details	speed of sound [m/s]	viscosity [mPa·s]
293.15 K, x1 = 0.1043	1264.1	4.14
293.15 K, x1 = 0.2043	1295.8	4.08
293.15 K, x1 = 0.3056	1329.1	4.046
293.15 K, x1 = 0.4083	1364.5	4.041
293.15 K, x1 = 0.5093	1401.3	4.026
293.15 K, x1 = 0.6063	1438.8	3.99
293.15 K, x1 = 0.7068	1480.1	3.929
293.15 K, x1 = 0.8042	1522.5	3.859
293.15 K, x1 = 0.9024	1568	3.77
298.15 K, x1 = 0.1043	1243.5	3.044
298.15 K, x1 = 0.2043	1274.8	3.064
298.15 K, x1 = 0.3056	1308	3.113
298.15 K, x1 = 0.4083	1343.4	3.19
298.15 K, x1 = 0.5093	1380.4	3.261
298.15 K, x1 = 0.6063	1418.1	3.31
298.15 K, x1 = 0.7068	1459.9	3.338
298.15 K, x1 = 0.8042	1503.4	3.351
298.15 K, x1 = 0.9024	1550.5	3.348
303.15 K, x1 = 0.1043	1225	2.516
303.15 K, x1 = 0.2043	1256.1	2.551
303.15 K, x1 = 0.3056	1289.2	2.617
303.15 K, x1 = 0.4083	1324.7	2.713
303.15 K, x1 = 0.5093	1361.9	2.8
303.15 K, x1 = 0.6063	1400	2.869
303.15 K, x1 = 0.7068	1442.6	2.918
303.15 K, x1 = 0.8042	1487.3	2.949
303.15 K, x1 = 0.9024	1536	2.966
308.15 K, x1 = 0.1043	1204.5	2.126
308.15 K, x1 = 0.2043	1235.7	2.167
308.15 K, x1 = 0.3056	1268.9	2.239
308.15 K, x1 = 0.4083	1304.5	2.339
308.15 K, x1 = 0.5093	1341.9	2.435
308.15 K, x1 = 0.6063	1380.6	2.512
308.15 K, x1 = 0.7068	1424.4	2.571
308.15 K, x1 = 0.8042	1470.5	2.611
308.15 K, x1 = 0.9024	1521	2.639
313.15 K, x1 = 0.1043	1185.6	1.802
313.15 K, x1 = 0.2043	1216.2	1.848
313.15 K, x1 = 0.3056	1249.3	1.927
313.15 K, x1 = 0.4083	1285.3	2.035
313.15 K, x1 = 0.5093	1323.1	2.138
313.15 K, x1 = 0.6063	1362.1	2.224
313.15 K, x1 = 0.7068	1406.8	2.291
313.15 K, x1 = 0.8042	1453.9	2.338
313.15 K, x1 = 0.9024	1506.1	2.375
318.15 K, x1 = 0.1043	1167.6	1.543
318.15 K, x1 = 0.2043	1197.6	1.593
318.15 K, x1 = 0.3056	1230.7	1.677
318.15 K, x1 = 0.4083	1266.9	1.791
318.15 K, x1 = 0.5093	1305	1.903
318.15 K, x1 = 0.6063	1344.2	1.998
318.15 K, x1 = 0.7068	1389.5	2.072
318.15 K, x1 = 0.8042	1437.6	2.129
318.15 K, x1 = 0.9024	1491.3	2.175
